Source: patent US5633381A, “(Z,Z), (Z,E) and (E,Z) isomers of substituted bis(phenylmethylene)cycloketones” (Berlex Laboratories, Inc., priority 1994, dated 1997)
Counter-ions that a name gives are not always drawn.

What was measured:
Format in all cases: biochemical
Factor Xa (HFXa) = Factor Xa (HFXa) (Homo sapiens, UniProt P00742); assay: Assay of free Factor Xa: initial rate of cleavage of peptide p-nitroanilide S-2222; conditions: free FXa, Tris-HCl pH 7.5, 164 μM S-2222, 3 nM HFXa, room temperature
Factor Xa (HFXa), sequence (P00742 235-488 limits assumed): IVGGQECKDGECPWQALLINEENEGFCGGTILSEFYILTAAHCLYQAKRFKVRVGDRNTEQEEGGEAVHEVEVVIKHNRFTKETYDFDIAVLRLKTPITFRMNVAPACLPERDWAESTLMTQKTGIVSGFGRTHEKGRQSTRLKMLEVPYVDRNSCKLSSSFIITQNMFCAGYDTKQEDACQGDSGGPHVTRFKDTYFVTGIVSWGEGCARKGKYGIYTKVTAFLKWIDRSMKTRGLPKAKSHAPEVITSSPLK
Factor Xa (HFXa), sequence (P00742 41-179 limits assumed): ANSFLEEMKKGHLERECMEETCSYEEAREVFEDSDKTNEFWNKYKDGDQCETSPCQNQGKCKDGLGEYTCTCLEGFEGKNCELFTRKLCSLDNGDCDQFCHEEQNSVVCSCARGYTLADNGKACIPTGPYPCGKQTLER
Method: (§1) There are a number of tests which illustrate the activity of the compounds of this invention. Due to the light sensitivity of the test Compounds, experiments were performed under minimally lighted conditions. The tests follow. ASSAY OF FREE FACTOR XA AND THROMBIN Activity of Factor Xa and thrombin (IIa) were determined as the initial rate of cleavage of peptide p-nitroanilide by the enzymes. […] Initial rate of the first 2 minutes was used for calculation of the enzyme activities.

thrombin (IIa) = thrombin (IIa) (Homo sapiens, UniProt P00734); assay: Assay of free thrombin (IIa): initial rate of cleavage of peptide p-nitroanilide S2302; conditions: Tris-HCl pH 7.5, 300 μM S2302, 20 nM thrombin, room temperature
Method: as §1

[1] = tested on: citrated plasma clotting (activated partial thromboplastin time); assay: Coagulation assay: activated partial thromboplastin time (APTT); conditions: human plasma, Actin Reagent, 37° C.
Method: (§2) There are a number of tests which illustrate the activity of the compounds of this invention. Due to the light sensitivity of the test Compounds, experiments were performed under minimally lighted conditions. The tests follow.
(§3) Two coagulation assays, the activated partial thromboplastin time (APTT) and the prothrombin time (PT), were used to evaluate the compounds. An Electra 900C coagulometer with the software package was used. The Actin Reagent (APTT) or Rabbit Brain Thromboplastin (PT) is added to citrated plasma sample in equal volumes (100 μL each) and allowed to incubate for 5 min. at 37° C. […] (100 μL) is added and time to clot noted. Dilution series for compounds undergoing testing were made in human plasma prior to assay.

[2] = tested on: citrated plasma clotting (prothrombin time); assay: Coagulation assay: prothrombin time (PT); conditions: human plasma, Rabbit Brain Thromboplastin, 37° C.
Method: as §2, §3

human FXa = target: T1, human FXa (Homo sapiens, UniProt P00742); assay: In vitro plasma matrix effect on anti-FX activity (compounds diluted in 100% rat plasma); conditions: compound in 100% rat plasma, 30 min incubation, S2222, pH 7.5, room temperature, read-out: Ki (Xa)
T1 construct: 6 nM of human FXa; purchased Enzyme Research Lab; USA
T1 sequence (P00742 235-488 limits assumed): as the sequence (P00742 235-488 limits assumed) above
T1 sequence (P00742 41-179 limits assumed): as the sequence (P00742 41-179 limits assumed) above
Method: as §2
IN VITRO PLASMA MATRIX EFFECT ON ANTI-FX ACTIVITY:
Compound stock solutions (10 mM in DMSO) were diluted in 100% rat plasma in a series of 1 to 3 dilutions in the following concentration ranges: (1) from 300 μM to 1.23 μM; (2) from 10 μM to 0.041 μM; (3) from 100 μM to 0.412 μM. After 30 minutes incubation (in dark) at room temperature, 20 μL of diluted compounds (in rat plasma) were added in duplicate to a 96-well flat-bottom microtiter plate (Dynatech Laboratories, USA). Thirty microliter of assay buffer containing 50 mM Tris HCl, pH 7.5, […], and 0.1% polyethylene glycol 6000 was added to each sample well followed by 100 ul of 6 nM of human FXa (in assay buffer) (Enzyme Research Lab. USA). The plate was mixed in a plate shaker for about 30 seconds. The reaction was started by the addition of 50 ul of 656 uM of chromogenic substrate S2222 in assay buffer (Pharmacia Hepar Inc. USA). FXa activity was measured at […] at room temperature for five minutes at 10 seconds interval in a THERMOmax microtiter plate reader (Molecular Devices). An internal standard was assayed in parallel as control. Initial rate as mOD/min was determined using OD readings in the first two minutes of the reaction. IC50 values were determined with a 4-parameter curve fit program provided by the Molecular Devices' software, SOFTmax 2.32. Ki values were then calculated with the following equation: Ki=IC50 /(1+[S]/Km). […]

Ki (Factor Xa (HFXa)) [µM] | Ki (thrombin (IIa)) [µM] | Ki (human FXa) [µM] | Compound | APTT: dose of compound required to produce a 2 fold increase in clot time [1] [µg/mL] | PT: dose of compound required to produce a 2 fold increase in clot time [2] [µg/mL]
16.5 ± 0.8 | 6.2 ± 0.53 | 27 ± 2.6 | N=C(N)c1ccc(/C=C2\CCCC/C(=C\c3ccc(C(=N)N)cc3)C2=O)cc1 [EX. 1 E,E, E,E-1,3-bis[(4'-(amino(imino)methyl)phenyl)methylene]-2-oxocycloheptane, hydrochloride] | 17.5 | > 30
0.201 ± 0.057 | 0.132 ± 0.002 | 0.21 ± 0.034 | N=C(N)c1ccc(/C=C2/CCCC/C(=C\c3ccc(C(=N)N)cc3)C2=O)cc1 [EX. 2 Z,E, Z,E-1,3-bis[(4'-(amino(imino)methyl)phenyl)methylene]-2-oxocycloheptane, trifluoroacetate] | 1.6 | 3.2
0.00112 ± 0.00028 | 0.525 | 0.00345 ± 7e-05 | N=C(N)c1ccc(/C=C2/CCCC/C(=C/c3ccc(C(=N)N)cc3)C2=O)cc1 [EX. 2 Z,Z, Z,Z-1,3-bis[(4'-(amino(imino)methyl)phenyl)methylene]-2-oxocycloheptane, trifluoroacetate] | 0.3 | 0.3
5.65 ± 0.35 | 2.97 ± 0.48 | – | N=C(N)c1ccc(/C=C2\CCC/C(=C\c3ccc(C(=N)N)cc3)C2=O)cc1 [EX. 3 E,E, E,E-1,3-bis[(4'-(amino(imino)methyl)phenyl)methylene]-2-oxocyclohexane, phosphate] | – | –
0.422 ± 0.167 | 0.115 ± 0.071 | – | N=C(N)c1ccc(/C=C2/CCC/C(=C\c3ccc(C(=N)N)cc3)C2=O)cc1 [EX. 4 Z,E, Z,E-1,3-bis[(4'-(amino(imino)methyl)phenyl)methylene]-2-oxocyclohexane, trifluoroacetate] | – | –
0.0289 ± 0.007 | 1.34 ± 0.37 | – | N=C(N)c1ccc(/C=C2/CCC/C(=C/c3ccc(C(=N)N)cc3)C2=O)cc1 [EX. 4 Z,Z, Z,Z-1,3-bis[(4'-(amino(imino)methyl)phenyl)methylene]-2-oxocyclohexane, trifluoroacetate] | – | –
> 5 | > 5 | – | N=C(N)c1ccc(/C=C2\CCCC/C(=C\c3ccc(C(N)=O)cc3)C2=O)cc1 [EX. 5 E,E, E,E-1-(4'-(amino(imino)methyl)phenyl)methylene-3-(4'-(aminocarbonyl)phenyl)methylene-2-oxocycloheptane, hydrochloride] | – | –
1.85 ± 0.01 | 0.38 | – | N=C(N)c1ccc(C=C2CCCCC(=Cc3ccc(C(N)=O)cc3)C2=O)cc1 [EX. 6 Z,E:E,Z, Z,E/E,Z-1-(4'-(amino(imino)methyl)phenyl)methylene-3-(4'-(aminocarbonyl)phenyl)-methylene-2-oxocycloheptane, trifluoroacetate] | – | –
0.0521 ± 0.0025 | 0.107 ± 0.002 | – | N=C(N)c1ccc(/C=C2/CCCC/C(=C/c3ccc(C(N)=O)cc3)C2=O)cc1 [EX. 6 Z,Z, Z,Z-1-(4'-(amino(imino)methyl)phenyl)methylene-3-(4'-(aminocarbonyl)phenyl)-methylene-2-oxocycloheptane, trifluoroacetate] | – | –
29 | 12.9 | – | CNC(=N)c1ccc(/C=C2\CCCC/C(=C\c3ccc(C(=N)N)cc3)C2=O)cc1 [EX. 7 E,E, E,E-1-(4'-(amino(imino)methyl)phenyl)methylene-3-(4'-(N'-methylamino-(imino)methyl)phenyl)methylene-2-oxocycloheptane, hydrochloride] | – | –
0.504 ± 0.044 | 0.363 ± 0.019 | – | CNC(=N)c1ccc(C=C2CCCCC(=Cc3ccc(C(=N)N)cc3)C2=O)cc1 [EX. 8 Z,E:E,Z, Z,E/E,Z-1-(4'-(amino(imino)methyl)phenyl)methylene-3-(4'-(N'-methylamino (imino)methyl)phenyl)methylene-2-oxocycloheptane, trifluoroacetate] | – | –
0.0123 ± 0.0018 | 1.58 ± 0.29 | – | C/N=C(\N)c1ccc(/C=C2/CCCC/C(=C/c3ccc(C(=N)N)cc3)C2=O)cc1 [EX. 8 Z,Z, Z,Z-1-(4'-(amino(imino)methyl)phenyl)methylene-3-(4'-(N'-methylamino-(imino)methyl)phenyl)methylene-2-oxocycloheptane, trifluoroacetate] | – | –
0.0178 ± 0.0026 | 1.39 ± 0.14 | – | CN(C)C(=N)c1ccc(/C=C2/CCCC/C(=C/c3ccc(C(=N)N)cc3)C2=O)cc1 [EX. 10 Z,Z, Z,Z-1-(4'-(amino(imino)methyl)phenyl)methylene-3-(4'-(N',N'-dimethylamino (imino)methyl)phenyl)methylene-2-oxocycloheptane] | – | –
0.0291 ± 0.0058 | 120 ± 7 | – | N=C(N)c1ccc(/C=C2/CC(C(=O)O)C/C(=C/c3ccc(C(=N)N)cc3)C2=O)cc1 (stereo not shown) [EX. 11 Z,Z, Z,Z-3,5-bis[(4'-(amino(imino)methyl)phenyl)methylene]-4-oxocyclohexanoic acid, trifluoroacetate] | – | –
1.39 ± 0.21 | 2.14 ± 0.15 | – | N=C(N)c1cccc(/C=C2\CCCC/C(=C\c3cccc(C(=N)N)c3)C2=O)c1 [EX. 12 E,E, E,E-1,3-bis[(3'-(amino(imino)methyl)phenyl)methylene]-2-oxocycloheptane, dihydrochloride] | – | –
0.143 ± 0.038 | 1 ± 0.03 | – | N=C(N)c1cccc(/C=C2/CCCC/C(=C\c3cccc(C(=N)N)c3)C2=O)c1 [EX. 13 Z,E, Z,E-1,3-bis[(3'-(amino(imino)methyl)phenyl)methylene]-2-oxocycloheptane, trifluoroacetate] | – | –
0.00563 ± 0.00197 | 1.36 ± 0.5 | – | N=C(N)c1cccc(/C=C2/CCCC/C(=C/c3cccc(C(=N)N)c3)C2=O)c1 [EX. 13 Z,Z, Z,Z-1,3-bis[(3'-(amino(imino)methyl)phenyl)methylene]-2-oxocycloheptane, trifluoroacetate] | – | –
0.509 ± 0.026 | 0.146 ± 0.027 | – | N=C(N)c1ccc(/C=C2/CCCCCCC/C(=C\c3ccc(C(=N)N)cc3)C2=O)cc1 [EX. 14 Z,E] | – | –
0.111 ± 0.002 | 0.741 ± 0.161 | – | N=C(N)c1ccc(/C=C2/CCCCCCC/C(=C/c3ccc(C(=N)N)cc3)C2=O)cc1 [EX. 14 Z,Z] | – | –
0.128 ± 0.025 | 0.198 ± 0.018 | – | N=C(N)c1ccc(/C=C2/CCCCC/C(=C\c3ccc(C(=N)N)cc3)C2=O)cc1 [EX. 15 Z,E, Z,E-1,3-bis[(4'-(amino(imino)methyl)phenyl)methylene]-2-oxocyclooctane] | – | –
0.0137 ± 0.0055 | 0.619 ± 0.193 | – | N=C(N)c1ccc(/C=C2/CCCCC/C(=C/c3ccc(C(=N)N)cc3)C2=O)cc1 [EX. 15 Z,Z, Z,Z-1,3-bis[(4'-(amino(imino)methyl)phenyl)methylene]-2-oxocyclooctane] | – | –
0.324 ± 0.048 | 0.347 ± 0.035 | – | N=C(N)c1ccc(/C=C2/CCCCCC/C(=C\c3ccc(C(=N)N)cc3)C2=O)cc1 [EX. 16 Z,E, Z,E-1,3-bis[(4'-(amino(imino)methyl)phenyl)methylene]-2-oxocyclononane] | – | –
0.006 ± 0.0028 | 0.527 ± 0.052 | – | N=C(N)c1ccc(/C=C2/CCCCCC/C(=C/c3ccc(C(=N)N)cc3)C2=O)cc1 [EX. 16 Z,Z, Z,Z-1,3-bis[(4'-(amino(imino)methyl)phenyl)methylene]-2-oxocyclononane] | – | –
